Tests used:
Neuromedin-K receptor = target: T1, Neuromedin-K receptor (Homo sapiens, UniProt P29371); experiment: Binding affinity towards cloned human Tachykinin receptor 3 (hNK-3) expressed in CHO cells using [125I][MePhe7]-NKB; type: cell-based
T1 sequence (P29371 whole entry): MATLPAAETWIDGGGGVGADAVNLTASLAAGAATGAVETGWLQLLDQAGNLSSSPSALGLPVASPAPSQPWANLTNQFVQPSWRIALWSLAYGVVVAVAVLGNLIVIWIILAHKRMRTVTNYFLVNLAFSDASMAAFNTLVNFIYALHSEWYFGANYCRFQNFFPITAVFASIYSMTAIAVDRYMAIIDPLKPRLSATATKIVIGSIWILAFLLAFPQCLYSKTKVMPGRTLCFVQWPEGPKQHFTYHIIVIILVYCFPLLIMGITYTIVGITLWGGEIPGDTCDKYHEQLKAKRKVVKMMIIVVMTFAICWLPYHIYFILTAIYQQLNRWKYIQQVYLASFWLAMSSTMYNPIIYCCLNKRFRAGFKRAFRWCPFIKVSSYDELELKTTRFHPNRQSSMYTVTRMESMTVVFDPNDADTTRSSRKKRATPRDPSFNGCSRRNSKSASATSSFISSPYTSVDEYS

Substance-K receptor = target: T2, Substance-K receptor (Homo sapiens, UniProt P21452); experiment: Binding affinity towards cloned human Tachykinin receptor 2 (hNK-2) expressed in CHO cells using [125I]NKA
T2 sequence (P21452 whole entry): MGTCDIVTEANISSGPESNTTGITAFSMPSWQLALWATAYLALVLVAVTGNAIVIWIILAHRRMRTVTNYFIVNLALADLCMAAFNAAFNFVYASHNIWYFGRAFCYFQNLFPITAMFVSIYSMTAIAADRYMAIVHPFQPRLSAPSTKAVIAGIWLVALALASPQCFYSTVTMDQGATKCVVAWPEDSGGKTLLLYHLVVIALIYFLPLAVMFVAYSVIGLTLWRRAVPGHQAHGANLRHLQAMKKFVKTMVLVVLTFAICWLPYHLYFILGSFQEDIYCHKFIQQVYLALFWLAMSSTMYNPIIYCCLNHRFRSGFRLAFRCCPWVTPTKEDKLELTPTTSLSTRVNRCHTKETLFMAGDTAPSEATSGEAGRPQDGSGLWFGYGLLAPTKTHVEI

Substance-P receptor = Substance-P receptor (Homo sapiens, UniProt P25103); experiment: Binding affinity towards cloned human Tachykinin receptor 1 (hNK-1) expressed in CHO cells using [3H]substance P
Chain of Substance-P receptor (P25103 whole entry): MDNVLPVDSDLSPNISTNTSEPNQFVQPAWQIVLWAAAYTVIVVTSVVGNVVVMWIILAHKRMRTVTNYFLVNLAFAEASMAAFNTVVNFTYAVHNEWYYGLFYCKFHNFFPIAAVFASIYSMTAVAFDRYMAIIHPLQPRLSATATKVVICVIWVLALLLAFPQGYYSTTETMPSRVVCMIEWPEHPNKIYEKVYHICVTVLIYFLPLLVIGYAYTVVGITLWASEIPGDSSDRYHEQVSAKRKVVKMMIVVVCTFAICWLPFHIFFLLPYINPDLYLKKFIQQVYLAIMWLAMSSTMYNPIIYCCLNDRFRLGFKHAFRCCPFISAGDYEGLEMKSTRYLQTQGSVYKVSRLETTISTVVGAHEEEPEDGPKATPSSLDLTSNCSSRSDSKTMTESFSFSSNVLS

[1] = target: Neuromedin-K receptor (Oryctolagus cuniculus); experiment: In vitro functional activity as antagonism of senktide-induced contractions in RISM (Rabbit Isolated Iris Sphincter Muscle) containing NK-3 receptor

SMILES | Ki (Neuromedin-K receptor) [nM] | also measured
CC[C@@H](NC(=O)c1c(OCCO)c(-c2ccccc2)nc2ccccc12)c1ccccc1 | 1.5 | Ki (Substance-K receptor): 82 nM; Ki (Substance-P receptor): > 100000 nM
CC(C)C(NC(=O)c1cc(-c2ccccc2)nc2ccccc12)c1ccccc1 (stereo not drawn) | 74.3 | –
CCCCc1c(-c2ccccc2)nc2ccccc2c1C(=O)NC(CC)c1ccccc1 (stereo not drawn) | 15.2 | –
CCOC(=O)COc1c(-c2ccccc2)nc2ccccc2c1C(=O)NC(CC)c1ccccc1 (single isomer, unassigned) | 2 | –
CN(C)C(=O)C(NC(=O)c1cc(-c2ccccc2)nc2ccccc12)c1ccccc1 (stereo not drawn) | 488 | –
CCC(NC(=O)c1c(OCCN2CCCC2)c(-c2ccccc2)nc2ccccc12)c1ccccc1 (single isomer, unassigned) | 6.8 | –
CC[C@@H](NC(=O)c1c(CN(C)C)c(-c2ccccc2)nc2ccccc12)c1ccccc1 | 2.2 | Ki (Substance-K receptor): 172 nM; Ki (Substance-P receptor): > 100000 nM
CCCCCCc1c(-c2ccccc2)nc2ccccc2c1C(=O)NC(CC)c1ccccc1 (stereo not drawn) | 55.4 | –
CCC(NC(=O)c1c(OCC(N)=O)c(-c2ccccc2)nc2ccccc12)c1ccccc1 (single isomer, unassigned) | 6.3 | –
NC(=O)C(NC(=O)c1cc(-c2ccccc2)nc2ccccc12)c1ccccc1 (stereo not drawn) | 983 | –
CCC(NC(=O)c1c(-c2ccccc2)c(-c2ccccc2)nc2ccccc12)c1ccccc1 (stereo not drawn) | 45.3 | –
CCC(NC(=O)c1c(NC(C)=O)c(-c2ccccc2)nc2ccccc12)c1ccccc1 (single isomer, unassigned) | 15.9 | –
CCC(NC(=O)c1c(Br)c(-c2ccccc2)nc2ccccc12)c1ccccc1 (single isomer, unassigned) | 37.2 | –
CC[C@@H](NC(=O)c1c(OCC(=O)O)c(-c2ccccc2)nc2ccccc12)c1ccccc1 | – | Ki (Substance-K receptor): 214 nM; Ki (Substance-P receptor): > 100000 nM
CCC(NC(=O)c1c(OC)c(-c2ccccc2)nc2ccccc12)c1ccccc1 (single isomer, unassigned) [listing 1 of 2 here] | 1.8 | Ki (Substance-K receptor): 329 nM; Ki (Substance-P receptor): > 100000 nM
CCCCCCCC(NC(=O)c1cc(-c2ccccc2)nc2ccccc12)c1ccccc1 (stereo not drawn) | 4870 | –
CC[C@@H](NC(=O)c1c(N)c(-c2ccccc2)nc2ccccc12)c1ccccc1 | – | Ki (Substance-K receptor): 111 nM; Ki (Substance-P receptor): > 100000 nM
CC(NC(=O)c1cc(-c2ccccc2)nc2ccccc12)c1ccccc1 (stereo not drawn) | 264 | –
O=C(NC(c1ccccc1)C(F)(F)F)c1cc(-c2ccccc2)nc2ccccc12 (stereo not drawn) | 454 | –
O=C(N[C@H](C(=O)O)c1ccccc1)c1cc(-c2ccccc2)nc2ccccc12 | 1650 | –
O=C(NC(CCO)c1ccccc1)c1cc(-c2ccccc2)nc2ccccc12 (stereo not drawn) | 382 | –
CCC(NC(=O)c1c(OC)c(-c2ccccc2)nc2ccccc12)c1ccccc1 (single isomer, unassigned) [listing 2 of 2 here] | – | Kb [1]: 1.8 nM
NC[C@@H](NC(=O)c1cc(-c2ccccc2)nc2ccccc12)c1ccccc1 | 1140 | –
CC(C)(NC(=O)c1cc(-c2ccccc2)nc2ccccc12)c1ccccc1 | 295 | –

SMILES | Ki (Neuromedin-K receptor) [nM] | also measured
CCC(NC(=O)c1c(OCCN)c(-c2ccccc2)nc2ccccc12)c1ccccc1 (single isomer, unassigned) | 4.7 | –
O=C(NC(c1ccccc1)c1ccccc1)c1cc(-c2ccccc2)nc2ccccc12 | 134 | –
O=C(NC(CO)c1ccccc1)c1cc(-c2ccccc2)nc2ccccc12 (stereo not drawn) | 207 | –
CCC(NC(=O)c1c(OCCN(C)C)c(-c2ccccc2)nc2ccccc12)c1ccccc1 (single isomer, unassigned) | 5.7 | –
CCCc1c(-c2ccccc2)nc2ccccc2c1C(=O)NC(CC)c1ccccc1 (stereo not drawn) | 13.7 | –
CCC(NC(=O)c1c(OC)c(-c2ccccc2)nc2ccccc12)c1ccccc1 (stereo not drawn) | 5.8 | –
CCC(NC(=O)c1c(OCCCN(C)C)c(-c2ccccc2)nc2ccccc12)c1ccccc1 (single isomer, unassigned) | 8.6 | –
CC[C@@H](NC(=O)c1cc(-c2ccccc2)nc2ccccc12)c1ccccc1 | – | Ki (Substance-K receptor): 237 nM; Ki (Substance-P receptor): > 100000 nM
CC(=O)C(NC(=O)c1cc(-c2ccccc2)nc2ccccc12)c1ccccc1 (stereo not drawn) | 27.4 | –
COC(=O)CC(NC(=O)c1cc(-c2ccccc2)nc2ccccc12)c1ccccc1 (stereo not drawn) | 973 | –
O=C(NC1(c2ccccc2)CCCC1)c1cc(-c2ccccc2)nc2ccccc12 | 129 | –
CNC(=O)C(NC(=O)c1cc(-c2ccccc2)nc2ccccc12)c1ccccc1 (stereo not drawn) | 426 | –
CC[C@@H](NC(=O)c1c(Cl)c(-c2ccccc2)nc2ccccc12)c1ccccc1 | 29.9 | –
CN(C)C[C@@H](NC(=O)c1cc(-c2ccccc2)nc2ccccc12)c1ccccc1 | 1070 | –
CCC(NC(=O)c1c(NC(=O)CN(C)C)c(-c2ccccc2)nc2ccccc12)c1ccccc1 (single isomer, unassigned) | 10.7 | –
CC[C@@H](NC(=O)c1c(C)c(-c2ccccc2)nc2ccccc12)c1ccccc1 | – | Ki (Substance-K receptor): 277 nM; Ki (Substance-P receptor): > 100000 nM
CC[C@@H](NC(=O)c1c(F)c(-c2ccccc2)nc2ccccc12)c1ccccc1 | 30.3 | –
COCC(NC(=O)c1cc(-c2ccccc2)nc2ccccc12)c1ccccc1 (stereo not drawn) | 314 | –
CCCC(NC(=O)c1cc(-c2ccccc2)nc2ccccc12)c1ccccc1 (stereo not drawn) | 47.2 | –
O=C(NC(Cc1ccccc1)c1ccccc1)c1cc(-c2ccccc2)nc2ccccc12 (stereo not drawn) | 3510 | –
CC[C@@H](NC(=O)c1c(OCC(=O)N(C)C)c(-c2ccccc2)nc2ccccc12)c1ccccc1 | 2.4 | –
CCc1c(-c2ccccc2)nc2ccccc2c1C(=O)N[C@H](CC)c1ccccc1 | – | Ki (Substance-K receptor): 316 nM; Ki (Substance-P receptor): > 100000 nM
CCCCC(NC(=O)c1cc(-c2ccccc2)nc2ccccc12)c1ccccc1 (stereo not drawn) | 146 | –
